Source: patent US11512079B2, “Heterocycle substituted pyridine derivative antifungal agents” (Amplyx Pharmaceuticals, Inc., priority 2017, dated 2022)
In brackets after ≈: the same amount, converted by molar mass. Structures can show the parent of a compound that is named as a salt.

Assays:
Type in all cases: cell-based
[1] = system: Aspergillus fumigatus MYA3626; assay: In vitro antifungal assay (Example IX), microdilution broth, MEC; conditions: minimum effective concentration (shortening of hyphae), 35° C., 40-48 h, RPMI1640
Method: (§1) Measurement of antifungal activity: […] Candida albicans 90028, Aspergillus fumigatus MYA3626, Rhizomucor pusillus 46342 and Cryptococcus neoformans […] strains were obtained from American Type Culture Collection (ATCC). […] (A. fumigatus) and 35° C. (R. pusillus). Water containing 1% Tween was directly added to the agar plate and gently agitated to wet and remove the Aspergillus conidia. For R. pusillus, water was added to the surface and gently massaged to wet and remove the spores. For both species, the conidia or spores and mycelial fragments were collected, followed by removal of mycelium, conidiophores and large clumps of conidia/spores. The resulting spore suspension was counted and diluted into RPMI1640 medium to adjust to a final suspension of 1-2×10^4 spores/mL. The suspension was used in the MEC measurement as described below. […] The compounds were weighed and DMSO was added to prepare a 10 mg/mL stock. The solutions were mixed by vortexing and sonication at 37° C. for 5-10 mins. The resulting solutions were sterile filtered using a PTFE filter, and aliquoted (12 μL or as needed) and stored at -20° C. Intermediate compound dilutions were prepared in sterile polypropylene tubes in 100% DMSO. […] This was validated by thorough mixing and reading at 600 nm on a microplate reader. The minimum concentration that led to shortening of hyphae as compared to hyphal growth in DMSO control wells was determined as the minimum effective concentration (MEC) for A. fumigatus and R. pusillus (as read for echinocandins). The use of the MIC and MEC endpoints against yeasts and molds, respectively has been described by Pfaller M A, Duncanson F, Messer S A, Moet G J, Jones […]. Antimicrob Agents Chemother. 2011. 55(11):5155-8. In vitro activity of a novel broad-spectrum antifungal, […], tested against Aspergillus spp. determined by CLSI and EUCAST broth microdilution methods. Results are shown in Table 2, and the letters indicate the following ranges in μg/mL: […]

[2] = system: Rhizomucor pusillus 46342; assay: as above; conditions: minimum effective concentration (shortening of hyphae), 35° C., 40-48 h, RPMI1640
Method: as §1

Candida albicans 90028 = assay: In vitro antifungal assay (Example IX), microdilution broth, MIC; conditions: minimum inhibitory concentration (≥50% inhibition), 35° C., 40-48 h, RPMI1640
Method: Measurement of antifungal activity: Antifungal activity of the compounds was evaluated in a microdilution broth assay as per Clinical and Laboratory Standard Institute methodology for yeast (for Candida and Cryptococcus) (1) and molds (for Aspergillus and Rhizomucor) (2). Candida albicans 90028, Aspergillus fumigatus MYA3626, Rhizomucor pusillus 46342 and Cryptococcus neoformans H99 strains were obtained from American Type Culture Collection (ATCC).
Preparation of Fungal Suspension. C. albicans 90028 and C. neoformans H99 strains were streaked from frozen stocks at −80° C. onto Sabouraud Dextrose Agar (SDA) plates. These were allowed to grow for 24 h (C. albicans) and 48 h (C. neoformans) at 35° C. before using them in the assay. 5-6 individual colonies were picked and diluted into sterile water to obtain a fungal suspension. The cell density of the suspension was determined and the culture diluted with RPMI1640 medium to obtain a fungal suspension of 2.5×10^3 cells/mL. The suspension was used in the MIC measurement as described below.
Preparation of Compound Stocks and Intermediate Dilutions: The compounds were weighed and DMSO was added to prepare a 10 mg/mL stock. The solutions were mixed by vortexing and sonication at 37° C. for 5-10 mins. The resulting solutions were sterile filtered using a PTFE filter, and aliquoted (12 μL or as needed) and stored at −20° C. Intermediate compound dilutions were prepared in sterile polypropylene tubes in 100% DMSO. The compound stock solution was first diluted in DMSO to obtain a concentration of […] to 0.19 μg/mL.
MIC/MEC Measurement: 99 μL 1 of the fungal suspension in RPMI1640 prepared as above was added to each well of a 96-well round bottom assay plate. 1 μL of the intermediate compound dilutions (200-0.19 μg/mL) were added to wells of the plate. This led to a 100-fold dilution of the intermediate dilutions resulting in a final compound concentration of 2-0.0019 μg/mL in the plate. 1 μL of DMSO was added to “No drug” control wells. The solutions were mixed by shaking on a plate shaker for 10 mins and plates incubated at 35° C. for 40-48 h (C. albicans, A. fumigatus, R. pusillus) and 72 h (Cryptococcus). […] This was validated by thorough mixing and reading at 600 nm on a microplate reader. The minimum concentration that led to shortening of hyphae as compared to hyphal growth in DMSO control wells was determined as the minimum effective concentration (MEC) for A. fumigatus and R. pusillus (as read for echinocandins). The use of the MIC and MEC endpoints against yeasts and molds, respectively has been described by Pfaller M A, Duncanson F, Messer S A, Moet G J, Jones R N, Castanheira M. Antimicrob Agents Chemother. 2011. 55(11):5155-8. In vitro activity of a novel broad-spectrum antifungal, E1210, tested against Aspergillus spp. determined by CLSI and EUCAST broth microdilution methods. Results are shown in Table 2, and the letters indicate the following ranges in μg/mL: […]

Nc1ncccc1-c1cc(Cc2ccc(OCc3cccc(Cl)c3)nc2)no1 [compound 85, 3-(3-((6-((3-chlorobenzyl)oxy)pyridin-3-yl)methyl)isoxazol-5-yl)pyridin-2-amine]
minimal effective concentration [1]: 0.01 to 0.1 µg/mL | minimal effective concentration [2]: 0.1 to 1 µg/mL | MIC (Candida albicans 90028): 0.01 to 0.1 µg/mL (≈ 0.0255 to 0.255 µM)

Nc1ncccc1-c1cc(Cc2ccnc(OCc3cccc(F)c3)c2)no1 [compound 86, 3-(3-((2-((3-fluorobenzyl)oxy)pyridin-4-yl)methyl)isoxazol-5-yl)pyridin-2-amine]
minimal effective concentration [1]: 0.01 to 0.1 µg/mL | minimal effective concentration [2]: > 1 µg/mL | MIC (Candida albicans 90028): 0.01 to 0.1 µg/mL (≈ 0.0266 to 0.266 µM)

Nc1ncccc1-c1cc(Cc2ccc(OCc3cc(F)cc(Cl)c3)nc2)no1 [compound 87, 3-(3-((6-((3-chloro-5-fluorobenzyl)oxy)pyridin-3-yl)methyl)isoxazol-5-yl)pyridin-2-amine]
minimal effective concentration [1]: 0.01 to 0.1 µg/mL | minimal effective concentration [2]: > 1 µg/mL | MIC (Candida albicans 90028): 0.1 to 1 µg/mL (≈ 0.243 to 2.43 µM)

Nc1ncccc1-c1cc(Cc2ccnc(Oc3ccccc3)c2)no1 [compound 88]
minimal effective concentration [1]: 0.1 to 1 µg/mL | minimal effective concentration [2]: > 1 µg/mL | MIC (Candida albicans 90028): 0.1 to 1 µg/mL (≈ 0.29 to 2.9 µM)

Nc1ncccc1-c1cc(Cc2cccc(OCc3cccc(F)c3)n2)no1 [compound 89, 3-(3-((6-((3-fluorobenzyl)oxy)pyridin-2-yl)methyl)isoxazol-5-yl)pyridin-2-amine]
minimal effective concentration [1]: > 1 µg/mL | minimal effective concentration [2]: > 1 µg/mL | MIC (Candida albicans 90028): > 1 µg/mL

Nc1ncccc1-c1cc(Cc2cccc(OCc3ccccc3F)n2)no1 [compound 90, 3-(3-((6-((2-fluorobenzyl)oxy)pyridin-2-yl)methyl)isoxazol-5-yl)pyridin-2-amine]
minimal effective concentration [1]: > 1 µg/mL | minimal effective concentration [2]: > 1 µg/mL | MIC (Candida albicans 90028): 0.1 to 1 µg/mL (≈ 0.266 to 2.66 µM)

Nc1ncccc1-c1cc(Cc2ccc(CNCc3ccn[nH]3)cc2)no1 [compound 93, 3-(3-(4-((((1H-pyrazol-5-yl)methyl)amino)methyl)benzyl)isoxazol-5-yl)pyridin-2-amine]
minimal effective concentration [1]: > 1 µg/mL | minimal effective concentration [2]: > 1 µg/mL | MIC (Candida albicans 90028): > 1 µg/mL

N#CCNCc1ccc(Cc2cc(-c3cccnc3N)on2)cc1 [compound 94, 2-((4-((5-(2-aminopyridin-3-yl)isoxazol-3-yl)methyl)benzyl)amino)acetonitrile]
minimal effective concentration [1]: > 1 µg/mL | minimal effective concentration [2]: > 1 µg/mL | MIC (Candida albicans 90028): > 1 µg/mL

Nc1ncccc1-c1cc(Cc2ccc(CNCC3CCOCC3)cc2)no1 [compound 95, 3-(3-(4-((((tetrahydro-2H-pyran-4-yl)methyl)amino)methyl)benzyl)isoxazol-5-yl)pyridin-2-amine]
minimal effective concentration [1]: > 1 µg/mL | minimal effective concentration [2]: > 1 µg/mL | MIC (Candida albicans 90028): > 1 µg/mL

Nc1ncccc1-c1cc(Cc2ccc(CNC3CCCCNC3=O)cc2)no1 (stereo not drawn) [compound 96, 3-((4-((5-(2-aminopyridin-3-yl)isoxazol-3-yl)methyl)benzyl)amino)azepan-2-one]
minimal effective concentration [1]: > 1 µg/mL | minimal effective concentration [2]: > 1 µg/mL | MIC (Candida albicans 90028): > 1 µg/mL

C=Cc1ccc(Cc2cc(-c3cccnc3N)on2)cc1 [compound 97, 3-(3-(4-Vinylbenzyl)isoxazol-5-yl)pyridin-2-amine]
minimal effective concentration [1]: 0.1 to 1 µg/mL | minimal effective concentration [2]: > 1 µg/mL | MIC (Candida albicans 90028): > 1 µg/mL

Nc1ncccc1-c1cc(Cc2ccc(CCSCCOC=O)cc2)no1 [compound 98, 2-((4-((5-(2-aminopyridin-3-yl)isoxazol-3-yl)methyl)phenethyl)thio)ethyl formate]
minimal effective concentration [1]: 0.1 to 1 µg/mL | minimal effective concentration [2]: > 1 µg/mL | MIC (Candida albicans 90028): 0.1 to 1 µg/mL

Nc1ncccc1-c1cc(Cc2ccc(Cn3cc(CO)cn3)cc2)no1 [compound 102, (1-(4-((5-(2-aminopyridin-3-yl)isoxazol-3-yl)methyl)benzyl)-1H-pyrazol-4-yl)methanol]
minimal effective concentration [1]: > 1 µg/mL | minimal effective concentration [2]: > 1 µg/mL | MIC (Candida albicans 90028): > 1 µg/mL

CCCc1cccc(OCc2ccc(Cc3cc(-c4cccnc4N)on3)cc2)c1 [compound 103, 3-(3-(4-((3-propylphenoxy)methyl)benzyl)isoxazol-5-yl)pyridin-2-amine]
minimal effective concentration [1]: 0.1 to 1 µg/mL | minimal effective concentration [2]: > 1 µg/mL | MIC (Candida albicans 90028): 0.1 to 1 µg/mL (≈ 0.25 to 2.5 µM)

COc1ccc(COc2ccc(Cc3cc(-c4cccnc4N)on3)cc2)cc1 [compound 109, 3-(3-(4-((4-methoxybenzyl)oxy)benzyl)isoxazol-5-yl)pyridin-2-amine]
minimal effective concentration [1]: > 1 µg/mL | minimal effective concentration [2]: > 1 µg/mL | MIC (Candida albicans 90028): > 1 µg/mL

N#Cc1ccc(COc2ccc(Cc3cc(-c4cccnc4N)on3)cc2)cc1 [compound 113, 4-((4-((5-(2-aminopyridin-3-yl)isoxazol-3-yl)methyl)phenoxy)methyl)benzonitrile]
minimal effective concentration [1]: 0.1 to 1 µg/mL | minimal effective concentration [2]: > 1 µg/mL | MIC (Candida albicans 90028): > 1 µg/mL

Nc1ncccc1-c1cc(Cc2ccc(OCc3ccc(F)nc3)cc2)no1 [compound 116, 3-(3-(4-((6-fluoropyridin-3-yl)methoxy)benzyl)isoxazol-5-yl)pyridin-2-amine]
minimal effective concentration [1]: 0.01 to 0.1 µg/mL | minimal effective concentration [2]: > 1 µg/mL | MIC (Candida albicans 90028): > 1 µg/mL

Nc1ncccc1-c1cc(Cc2ccc(Oc3c[n+]([O-])ccn3)cc2)no1 [compound 119, 3-(4-((5-(2-aminopyridin-3-yl)isoxazol-3-yl)methyl)phenoxy)pyrazine 1-oxide]
minimal effective concentration [1]: > 1 µg/mL | minimal effective concentration [2]: > 1 µg/mL | MIC (Candida albicans 90028): > 1 µg/mL

Nc1ncccc1-c1cc(Cc2ccc(Cn3ccccc3=O)cc2)no1 [compound 126, 1-(4-((5-(2-aminopyridin-3-yl)isoxazol-3-yl)methyl)benzyl)pyridin-2(1H)-one]
minimal effective concentration [1]: > 1 µg/mL | minimal effective concentration [2]: > 1 µg/mL | MIC (Candida albicans 90028): > 1 µg/mL

Nc1ncccc1-c1cc(Cc2ccc(OCc3ccccc3C(F)(F)F)nc2)no1 [compound 128, 3-(3-((6-((2-(trifluoromethyl)benzyl)oxy)pyridin-3-yl)methyl)isoxazol-5-yl)pyridin-2-amine]
minimal effective concentration [1]: 0.1 to 1 µg/mL | minimal effective concentration [2]: > 1 µg/mL | MIC (Candida albicans 90028): > 1 µg/mL

Nc1ncccc1-c1cc(Cc2ccc(OC3CCCc4cccnc43)nc2)no1 (stereo not drawn) [compound 129, 3-(3-((6-((5,6,7,8-tetrahydroquinolin-8-yl)oxy)pyridin-3-yl)methyl)isoxazol-5-yl)pyridin-2-amine]
minimal effective concentration [1]: > 1 µg/mL | minimal effective concentration [2]: > 1 µg/mL | MIC (Candida albicans 90028): > 1 µg/mL

Nc1ccc(-c2cc(Cc3ccc(OCc4nccs4)cc3)no2)c(N)n1 [compound 133, 3-(3-(4-(thiazol-2-ylmethoxy)benzyl)isoxazol-5-yl)pyridine-2,6-diamine]
minimal effective concentration [1]: 0.1 to 1 µg/mL | minimal effective concentration [2]: 0.1 to 1 µg/mL | MIC (Candida albicans 90028): 0.1 to 1 µg/mL (≈ 0.264 to 2.64 µM)
